Laboratory results from patent publication US20090186949A1, “Method for Treating Endothelial and Epithelial Cell Disorders by Administering High Molecular Weight PEG-Like Compounds” (THE UNIVERSITY OF CHICAGO, priority 2006, published 2009).
Entries after “also recorded” stand apart in the source; their conditions may differ. Where two headings read alike, the source gives them in different places.

Key:
P. aeruginosa PAO1 = type: cell-based, Pseudomonas aeruginosa
[1] = test system: P. aeruginosa (strain PAO1) whole cells and membrane fractions; type: binding, Pseudomonas aeruginosa
Endothelial cells [2] = test system: Endothelial cells
[3] = target: protein on the surface of whole cells of P. aeruginosa (strain PAO1)
[4] = test system: P. aeruginosa PA27853/PLL-EGFP
[5] = test system: mice inoculated with PA27853; experiment: Mice with slow release morphine pellets drinking PA27853
[6] = test system: PA-I lectin/adhesin expression in P. aeruginosa; type: cell-based, Pseudomonas aeruginosa
[7] = test system: intestinal epithelial cells; conditions: 0.6% solution; cited from earlier work
Endothelial cells [8] = experiment: Pretreatment of endothelial cells followed by S1P or HMW PEG challenge (TEER); type: cell-based
HPAECs = experiment: Intracellular calcium (Fura-2); type: cell-based, human; conditions: 1 U/ml thrombin; 1 μM S1P
[9] = test system: human lung microvessel endothelial cells (HLMVEC); experiment: Transendothelial electrical resistance (TEER) by ECIS, HMW PEG in serum-free EBM; type: cell-based
[10] = test system: ERK and MLC phosphorylation; experiment: ERK and MLC phosphorylation by Western blot; type: cell-based, human; conditions: 1 μM S1P, 5 minutes
Caco-2 cells = experiment: TEER of Caco-2 monolayers inoculated with PA27853 with IFN-γ; type: cell-based
Excerpt: In addition, strains were exposed to apical media from Caco-2 cells basolaterally exposed to one or more of the various epithelial-derived cytokines. Basolateral exposure of Caco-2 cells to the combination of IFN γ and TNF α activates cellular signaling proteins that dramatically alter tight junctional proteins and function. Media from Caco-2 cells exposed to various combinations of these cytokines had no effect on PA-I expression. However, IFN-γ alone induced a direct effect on PA-I expression while none of the other compounds alone had any effect (FIG. 4). […] Using ELISA, immunofluorescence microscopy, and flow cytometry, the binding characteristics of IFNγ were determined for both whole bacteria and membrane fractions of P. aeruginosa. […] These effects were also observed with strain PAO1. […] This protein can also be immunoprecipitated from E. coli (FIG. 6C). Next, IFN-γ binding specificity to whole bacterial cells was determined using reiterative binding studies in the presence of various gram-negative bacterial strains, including P. aeruginosa. […] Finally, in order to determine if PA-I was functionally expressed in PA27853 in the presence IFN-γ, PA27853 was inoculated onto Caco-2 cell monolayers in the presence of IFN-γ and the effect on barrier dysregulating dynamics of PA27853 against this cell line were assessed to determine if IFN-γ shifted the dynamics. […]

OprF = target: T1, OprF (Pseudomonas aeruginosa, UniProt P13794); experiment: Binding of IFN-γ to purified OprF (ELISA); conditions: dose-dependent
T1 sequence (P13794 25-350): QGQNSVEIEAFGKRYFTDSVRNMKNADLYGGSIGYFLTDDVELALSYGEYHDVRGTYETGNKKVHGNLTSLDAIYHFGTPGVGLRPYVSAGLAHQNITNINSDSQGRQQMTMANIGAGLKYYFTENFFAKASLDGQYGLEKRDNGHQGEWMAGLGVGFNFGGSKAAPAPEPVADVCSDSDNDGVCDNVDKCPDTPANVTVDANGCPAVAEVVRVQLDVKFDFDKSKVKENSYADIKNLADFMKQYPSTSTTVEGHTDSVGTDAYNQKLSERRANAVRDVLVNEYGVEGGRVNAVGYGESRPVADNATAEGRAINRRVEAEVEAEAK

[11] = test system: rhlI / C4-HSL in P. aeruginosa PAO1; experiment: Quorum sensing activation (rhlI mRNA, C4-HSL in supernatants); type: cell-based, Pseudomonas aeruginosa
MDCK monolayers = experiment: Purified PA-I on epithelial monolayers (TEER, exotoxin A flux); type: cell-based

## Oc1ccc2c3c1O[C@H]1c4[nH]c5c(c4C[C@@]4(O)[C@@H](C2)N(CC2CC2)CC[C@]314)C[C@@]1(O)[C@H]2Cc3ccc(O)c4c3[C@@]1(CCN2CC1CC1)[C@H]5O4 [NOR, nor-binaltorphimine]
P. aeruginosa PAO1
  U-50,488-enhanced PCN production: completely inhibited enhanced PCN production

## IL-10: human cytokine
[1]
  binding to P. aeruginosa cells / cell membranes (ELISA): No binding was observed

## High Molecular Weight PolyEthylene Glycol [HMW PEG]
Endothelial cells [2]
  exotoxin A-induced cytotoxicity: completely protected

## TGF-β
[1]
  binding to P. aeruginosa cells / cell membranes (ELISA): No binding was observed

## recombinant human IFN-γ (rH IFN-γ) (from UniProt P01579 24-166) (ligand)
[3]
  percent of bacterial cells that bound IFN-γ: 73%

## C[C@H](O)C(=O)O [L-lactate]
[4]
  PA-I promoter activity / expression (fluorescence): had no effect on PA-I promoter activity

## Nc1ncnc2c1ncn2[C@@H]1O[C@H](COP(=O)(O)O)[C@@H](O)[C@H]1O [AMP]
[4]
  PA-I promoter activity / expression (fluorescence): no evident inducing effects

## dynorphin
P. aeruginosa PAO1
  PCN production: enhanced PCN production in a dose-dependent manner

## CN1CC[C@]23c4c5ccc(O)c4O[C@H]2[C@@H](O)C=C[C@H]3[C@H]1C5 [morphine]
[5]; PA27853
  mortality: significant mortality
[5]; PA27853 1×10^8 cfu/ml daily
  mice developing severe sepsis: 4/4
[6]
  increase in PA-I mRNA: four-fold increase
[6]; PA27853, morphine 13 μM, quantitative RT-PCR
  increase in PA-I mRNA: 4 fold

## OC[C@H]1O[C@H](OCC2O[C@@H](O)[C@H](O)[C@@H](O)[C@@H]2O)[C@H](O)[C@@H](O)[C@H]1O (some centres unmarked) [mellibiose]
[7]
  adhesion of P. aeruginosa to intestinal epithelial cells: markedly decreased adhesion to intestinal epithelial cells

## CCCCCCCCCCCCCC(=O)O[C@@H]1[C@@H](C)[C@@]2(O)[C@@H](C=C(CO)C[C@]3(O)C(=O)C(C)=C[C@@H]23)[C@@H]2C(C)(C)[C@]12OC(C)=O [PMA]
Endothelial cells [8]; 100 nM PMA, baseline 1250 ohm
  time for TEER increase to return to baseline: 8 h

## OC[C@H]1O[C@@H](n2cnc3c(O)ncnc32)[C@H](O)[C@@H]1O [inosine]
[4]
  timing of PA-I induction compared to adenosine: induced PA-I expression at an earlier time point and at lower cell densities (OD) compared to adenosine
[4]; less than adenosine
  concentration inducing PA-I expression relative to adenosine: 10 fold

## thrombin
HPAECs
  intracellular calcium on stimulation of ECs: induced intracellular calcium spikes
[9]; thrombin 1 U/ml, control cells
  decrease in resistance: over 50%
  maximum decrease in resistance: approximately 1200 ohm

## COC(=O)c1ccccc1N [MA, methyl anthranilate]
P. aeruginosa PAO1
  ability of U-50,488 to enhance PCN production: inhibited the ability of U-50,488 to enhance PCN production; also recorded: attenuated the ability of U-50,488 to enhance PCN production

## CCCCCCCCCCCCC/C=C/[C@@H](O)[C@@H](N)COP(=O)(O)O [S1P, sphingosine 1-phosphate]
Endothelial cells [8]; pretreated 100 nM PMA 24 hours, challenge 1 μM S1P or 8% HMW PEG
  effect of PMA pretreatment on the response to stimulation: Blocked
Endothelial cells [8]; pretreated 100 ng/ml PTX 4 hours, challenge 1 μM S1P or 8% HMW PEG
  effect of PTX pretreatment on the response to stimulation: Blocked
Endothelial cells [8]; pretreated 1 μM S1P 24 hours, challenge 1 μM S1P or 8% HMW PEG
  effect of S1P pretreatment on the response to stimulation: No effect
Endothelial cells [8]; pretreated 10 μM FTY720 24 hours, challenge 1 μM S1P or 8% HMW PEG
  effect of FTY720 pretreatment on the response to stimulation: Blunted
Endothelial cells [8]; pretreated 10 μM FTY analog 24 hours, challenge 1 μM S1P or 8% HMW PEG
  effect of FTY analog pretreatment on the response to stimulation: Blunted
[10]
  ERK phosphorylation: drastic increase in ERK phosphorylation
HPAECs
  intracellular calcium on stimulation of ECs: induced intracellular calcium spikes
[9]; TEER
  time to maximum barrier enhancing effect: 10 to 15 min
[9]; TEER, human pulmonary microvessel EC
  increase in resistance (maximum barrier enhancing effect): 40%

## NC[C@H](O)c1ccc(O)c(O)c1 [norepinephrine]
[6]
  PA-I expression in vitro: did not change PA-I expression; also recorded: PA-I expression was not affected by this compound

## CCCC(=O)N[C@H]1CCOC1=O [C4-HSL, C4-homoserine lactone]
P. aeruginosa PAO1
  PCN production in mvfR mutants: none of these mutants produced PCN
  bacterial growth in TSB media: Neither compound had an effect on bacterial growth
  cell density at onset of PCN production: a shift in the production of PCN to lower cell densities
[6]
  PA-I expression in vitro: induced PA-I expression
  induction of PA-I mRNA (Northern blot): Induction of PA-I mRNA was observed

## CC(=O)N[C@H]1C(O)O[C@H](CO)[C@H](O)[C@@H]1O (stereo partly drawn) [GalNAc, N-acetyl-D-galactosamine]
[7]
  adhesion of P. aeruginosa to intestinal epithelial cells: markedly decreased adhesion to intestinal epithelial cells

## Nc1ncnc2c1ncn2[C@@H]1O[C@H](COP(=O)(O)OP(=O)(O)OP(=O)(O)O)[C@@H](O)[C@H]1O [ATP]
[4]
  PA-I promoter activity / expression (fluorescence): no evident inducing effects

## EGF: human cytokine tested for membrane binding
[1]
  binding to P. aeruginosa cells / cell membranes (ELISA): No binding was observed

## C[C@@H](O)C(=O)O [D-lactate]
[4]
  PA-I promoter activity / expression (fluorescence): had no effect on PA-I promoter activity

## IL-4: human cytokine
[1]
  binding to P. aeruginosa cells / cell membranes (ELISA): No binding was observed

## Nc1ncnc2c1ncn2[C@@H]1O[C@H](COP(=O)(O)OP(=O)(O)O)[C@@H](O)[C@H]1O [ADP]
[4]
  PA-I promoter activity / expression (fluorescence): no evident inducing effects

## IFN-γ: recombinant human interferon gamma, immune cytokine
[1]
  bacterial cells that bound IFN-γ: 73%±3.2%
  binding to P. aeruginosa cells / cell membranes (ELISA): avidly bound to whole fixed cells of P. aeruginosa in a dose-dependent manner
Caco-2 cells; 5 hour time point, PA27853 alone decreased TEER by 60%
  PA27853-induced decrease in Caco-2 TEER: enhanced in the presence of IFN-γ
Caco-2 cells; without bacteria
  Caco-2 TEER, IFN-γ alone: Neither media nor IFN-γ alone altered TEER
OprF
  binding to purified OprF: purified OprF directly binds human IFN-γ
[11]; PAO1
  rhlI transcription (Northern blot): induced rhlI transcription
[11]; PAO1, 100 ng/ml IFN-γ
  C4-HSL synthesis: C4-HSL synthesis was increased
P. aeruginosa PAO1
  pyocyanin production: increased pyocyanin production
[4]
  PA-I promoter activity / expression (fluorescence): Only IFN-γ induced PA-I promoter activity
[6]
  PA-I expression in vitro: induced PA-I expression
  concentration giving the greatest increase in PA-I protein: 100 ng/mL
  induction of PA-I mRNA (Northern blot): Induction of PA-I mRNA was observed

B1: PA-I: purified lectin/adhesin of P. aeruginosa, four 13 kDa subunits, binds D-galactose (protein, UniProt Q05097 2-122, looked up)
PA-I galactophilic lectin: AWKGEVLANNEAGQVTSIIYNPGDVITIVAAGWASYGPTQKWGPQGDREHPDQGLICHDAFCGALVMKIGNSGTIPVNTGLFRWVAPNNVQGAITLIYNDVPGTYGNNSGSFSVNIGKDQS
MDCK monolayers; purified PA-I
  TEER of epithelial cells: decreased the TEER of epithelial cells to the same degree as P. aeruginosa
MDCK monolayers; when TEER decreased below 50% of control by pure PA-I protein
  increase in exotoxin A flux across MDCK cells: five-fold increase

B2: adenosine deaminase: enzyme added to deplete the media of adenosine (protein, UniProt P00813 2-363, looked up)
Adenosine deaminase: AQTPAFDKPKVELHVHLDGSIKPETILYYGRRRGIALPANTAEGLLNVIGMDKPLTLPDFLAKFDYYMPAIAGCREAIKRIAYEFVEMKAKEGVVYVEVRYSPHLLANSKVEPIPWNQAEGDLTPDEVVALVGQGLQEGERDFGVKARSILCCMRHQPNWSPKVVELCKKYQQQTVVAIDLAGDETIPGSSLLPGHVQAYQEAVKSGIHRTVHAGEVGSAEVVKEAVDILKTERLGHGYHTLEDQALYNRLRQENMHFEICPWSSYLTGAWKPDTEHAVIRLKNDQANYSLNTDDPLIFKSTLDTDYQMTKRDMGFTEEEFKRLNINAAKSSFLPEDEKRELLDLLYKAYGMPPSASAGQNL
[4]; Caco-2
  PA-I expression after depletion of adenosine from HIF-1-α activated Caco-2 media: even greater increase in PA-I expression
